Measured values reported in ChEMBL document CHEMBL1152560, “Substituted 2-arylbenzothiazoles as kinase inhibitors: hit-to-lead optimization” (Bioorg Med Chem, 2009).

Experiments:
[1] = biological target: Dual specificity protein kinase CLK1 (Homo sapiens) (UniProt P49759); test: Residual activity of CLK1 at 10 uM by microplate scintillation counting
[2] = biological target: Serine/threonine-protein kinase SIK2 (Homo sapiens) (UniProt Q9H0K1); test: Residual activity of SNF1LK2 at 10 uM by microplate scintillation counting
[3] = biological target: Mitogen-activated protein kinase 1 (Homo sapiens) (UniProt P28482); test: Residual activity of ERK2 at 0.1 uM by microplate scintillation counting
Sequence of Mitogen-activated protein kinase 1 (Homo sapiens) (P28482 whole entry): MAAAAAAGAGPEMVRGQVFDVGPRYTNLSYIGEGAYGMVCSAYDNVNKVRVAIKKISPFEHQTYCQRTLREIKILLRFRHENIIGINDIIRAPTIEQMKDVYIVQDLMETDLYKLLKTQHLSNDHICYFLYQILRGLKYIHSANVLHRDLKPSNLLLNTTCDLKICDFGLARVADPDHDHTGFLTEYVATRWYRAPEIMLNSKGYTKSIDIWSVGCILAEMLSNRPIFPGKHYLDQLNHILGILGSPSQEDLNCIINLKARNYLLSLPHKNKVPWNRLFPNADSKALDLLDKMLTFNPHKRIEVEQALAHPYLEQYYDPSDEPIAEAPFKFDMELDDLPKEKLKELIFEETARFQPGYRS

[4] = biological target: Serine/threonine-protein kinase N2 (Homo sapiens) (UniProt Q16513); test: Residual activity of PRK2 at 0.1 uM by microplate scintillation counting
Sequence of Serine/threonine-protein kinase N2 (Homo sapiens) (Q16513 whole entry, looked up): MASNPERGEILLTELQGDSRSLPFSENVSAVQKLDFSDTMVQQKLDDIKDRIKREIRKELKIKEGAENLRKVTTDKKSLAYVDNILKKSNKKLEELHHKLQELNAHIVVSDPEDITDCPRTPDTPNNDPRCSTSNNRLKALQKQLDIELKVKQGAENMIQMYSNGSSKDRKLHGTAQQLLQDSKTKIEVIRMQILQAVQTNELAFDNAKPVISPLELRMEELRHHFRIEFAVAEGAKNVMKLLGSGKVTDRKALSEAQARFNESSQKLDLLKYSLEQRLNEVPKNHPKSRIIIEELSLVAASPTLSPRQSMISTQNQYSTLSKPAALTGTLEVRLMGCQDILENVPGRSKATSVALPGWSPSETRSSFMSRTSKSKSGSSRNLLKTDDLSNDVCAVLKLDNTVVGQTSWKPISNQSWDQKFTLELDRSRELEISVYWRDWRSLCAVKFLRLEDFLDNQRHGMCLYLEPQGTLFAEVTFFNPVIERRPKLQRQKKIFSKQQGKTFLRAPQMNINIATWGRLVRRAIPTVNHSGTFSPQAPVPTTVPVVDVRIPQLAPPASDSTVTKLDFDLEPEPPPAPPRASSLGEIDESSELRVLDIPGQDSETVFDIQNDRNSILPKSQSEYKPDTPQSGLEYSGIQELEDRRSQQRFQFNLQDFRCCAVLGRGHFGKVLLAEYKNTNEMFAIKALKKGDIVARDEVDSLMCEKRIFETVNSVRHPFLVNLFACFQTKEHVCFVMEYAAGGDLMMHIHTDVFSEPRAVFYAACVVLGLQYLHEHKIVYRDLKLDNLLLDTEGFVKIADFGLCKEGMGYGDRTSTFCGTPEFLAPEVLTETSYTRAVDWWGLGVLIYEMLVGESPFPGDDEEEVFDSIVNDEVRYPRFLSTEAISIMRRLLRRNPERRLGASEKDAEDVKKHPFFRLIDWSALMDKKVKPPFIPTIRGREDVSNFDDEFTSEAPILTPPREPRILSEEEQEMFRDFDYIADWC

[5] = biological target: Tyrosine-protein kinase Fer (Homo sapiens) (UniProt P16591); test: Residual activity of FER at 10 uM by microplate scintillation counting
Sequence of Tyrosine-protein kinase Fer (Homo sapiens) (P16591 whole entry, looked up): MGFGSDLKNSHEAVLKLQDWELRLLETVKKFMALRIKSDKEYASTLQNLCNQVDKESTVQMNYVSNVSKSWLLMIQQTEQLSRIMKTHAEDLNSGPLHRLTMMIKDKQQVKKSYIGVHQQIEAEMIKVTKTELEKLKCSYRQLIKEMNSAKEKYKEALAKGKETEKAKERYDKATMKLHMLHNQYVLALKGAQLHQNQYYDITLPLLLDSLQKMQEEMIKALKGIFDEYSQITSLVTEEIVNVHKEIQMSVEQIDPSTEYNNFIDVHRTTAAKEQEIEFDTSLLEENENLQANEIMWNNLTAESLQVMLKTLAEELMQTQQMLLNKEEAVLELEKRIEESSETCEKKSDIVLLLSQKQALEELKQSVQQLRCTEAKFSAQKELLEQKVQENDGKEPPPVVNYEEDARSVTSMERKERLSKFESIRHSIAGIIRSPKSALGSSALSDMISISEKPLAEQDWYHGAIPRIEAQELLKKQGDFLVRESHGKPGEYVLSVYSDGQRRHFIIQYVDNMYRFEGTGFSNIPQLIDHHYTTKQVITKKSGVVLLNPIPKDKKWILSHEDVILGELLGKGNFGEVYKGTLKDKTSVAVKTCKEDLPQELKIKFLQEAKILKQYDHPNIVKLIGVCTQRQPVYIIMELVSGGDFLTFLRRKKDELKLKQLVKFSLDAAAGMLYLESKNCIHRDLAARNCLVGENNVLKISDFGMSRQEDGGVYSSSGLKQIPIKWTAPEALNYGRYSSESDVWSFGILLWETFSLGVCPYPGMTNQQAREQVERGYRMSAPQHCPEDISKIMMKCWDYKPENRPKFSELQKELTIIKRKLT

[6] = biological target: Protein kinase C gamma type (Homo sapiens) (UniProt P05129); test: Residual activity of PKCgamma at 10 uM by microplate scintillation counting
[7] = biological target: LIM domain kinase 1 (Homo sapiens) (UniProt P53667); test: Residual activity of LIMK1 at 0.1 uM by microplate scintillation counting
[8] = biological target: Cyclin-dependent kinase 7/ cyclin H (Homo sapiens) (UniProt P51946+P50613); test: Residual activity of CDK7/CyclinH/MAT1 at 10 uM by microplate scintillation counting; type: protein-complex assay
[9] = biological target: Serine/threonine-protein kinase 24 (Homo sapiens) (UniProt Q9Y6E0); test: Residual activity of MST3 at 0.1 uM by microplate scintillation counting
Sequence of Serine/threonine-protein kinase 24 (Homo sapiens) (Q9Y6E0 whole entry, looked up): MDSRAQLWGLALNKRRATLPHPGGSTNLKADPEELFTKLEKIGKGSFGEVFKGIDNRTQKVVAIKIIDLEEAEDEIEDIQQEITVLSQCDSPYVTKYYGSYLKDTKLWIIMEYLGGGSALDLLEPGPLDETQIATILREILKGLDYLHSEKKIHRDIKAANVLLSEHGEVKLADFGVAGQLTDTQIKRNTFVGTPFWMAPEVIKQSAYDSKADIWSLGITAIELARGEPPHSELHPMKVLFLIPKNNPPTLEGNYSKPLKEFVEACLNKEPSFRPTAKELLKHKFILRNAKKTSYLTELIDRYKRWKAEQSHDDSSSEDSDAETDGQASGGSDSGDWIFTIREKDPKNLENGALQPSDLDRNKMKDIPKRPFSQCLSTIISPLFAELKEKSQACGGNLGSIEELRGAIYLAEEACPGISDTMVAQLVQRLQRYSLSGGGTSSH

[10] = biological target: T1, Testis-specific serine/threonine-protein kinase 1 (Homo sapiens) (UniProt Q9BXA7); test: Residual activity of TSSK1 at 1 uM by microplate scintillation counting
T1 sequence (whole entry): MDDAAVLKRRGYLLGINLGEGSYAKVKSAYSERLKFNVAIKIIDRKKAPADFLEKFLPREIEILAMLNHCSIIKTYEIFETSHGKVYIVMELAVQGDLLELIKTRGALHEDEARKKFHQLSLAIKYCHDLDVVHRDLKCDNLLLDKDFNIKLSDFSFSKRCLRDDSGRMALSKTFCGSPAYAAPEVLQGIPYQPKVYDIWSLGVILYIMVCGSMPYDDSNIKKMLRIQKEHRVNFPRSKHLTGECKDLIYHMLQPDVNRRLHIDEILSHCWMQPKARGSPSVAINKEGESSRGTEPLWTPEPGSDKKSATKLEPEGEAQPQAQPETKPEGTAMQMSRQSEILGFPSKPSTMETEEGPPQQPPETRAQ

[11] = biological target: Serine/threonine-protein kinase pim-1 (Homo sapiens) (UniProt P11309); test: Residual activity of PIM1 at 0.1 uM by microplate scintillation counting
Sequence of Serine/threonine-protein kinase pim-1 (Homo sapiens) (P11309 whole entry, looked up): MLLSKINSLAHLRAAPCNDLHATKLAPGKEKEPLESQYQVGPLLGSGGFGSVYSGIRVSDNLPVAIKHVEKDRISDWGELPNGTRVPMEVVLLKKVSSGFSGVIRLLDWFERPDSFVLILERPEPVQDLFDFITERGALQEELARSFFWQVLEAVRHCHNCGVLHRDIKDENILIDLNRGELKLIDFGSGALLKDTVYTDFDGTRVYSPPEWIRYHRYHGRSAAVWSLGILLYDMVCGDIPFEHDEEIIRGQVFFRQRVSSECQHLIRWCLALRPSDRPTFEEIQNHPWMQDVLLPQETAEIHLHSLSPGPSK

[12] = biological target: Tyrosine-protein kinase Yes (Homo sapiens) (UniProt P07947); test: Residual activity of YES at 0.1 uM by microplate scintillation counting
Sequence of Tyrosine-protein kinase Yes (Homo sapiens) (P07947 2-543 limits assumed): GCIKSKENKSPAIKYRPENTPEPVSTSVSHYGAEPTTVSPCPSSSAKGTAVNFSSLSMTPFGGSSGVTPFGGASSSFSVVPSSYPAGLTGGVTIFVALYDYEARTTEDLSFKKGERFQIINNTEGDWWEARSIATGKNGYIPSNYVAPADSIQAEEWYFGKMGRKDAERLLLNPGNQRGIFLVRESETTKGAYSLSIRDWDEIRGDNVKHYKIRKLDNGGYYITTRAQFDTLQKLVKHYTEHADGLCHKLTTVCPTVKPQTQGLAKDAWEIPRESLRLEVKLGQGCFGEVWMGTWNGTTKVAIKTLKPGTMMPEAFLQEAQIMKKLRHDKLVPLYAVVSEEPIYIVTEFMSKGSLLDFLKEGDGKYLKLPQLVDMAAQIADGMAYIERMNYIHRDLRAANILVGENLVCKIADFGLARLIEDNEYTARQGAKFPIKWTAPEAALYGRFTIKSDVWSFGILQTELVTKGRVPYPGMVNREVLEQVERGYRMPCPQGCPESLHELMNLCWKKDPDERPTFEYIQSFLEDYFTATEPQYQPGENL

[13] = biological target: T2, Serine/threonine-protein kinase Nek2 (Homo sapiens) (UniProt P51955); test: Residual activity of NEK2 at 0.1 uM by microplate scintillation counting
T2 sequence (whole entry): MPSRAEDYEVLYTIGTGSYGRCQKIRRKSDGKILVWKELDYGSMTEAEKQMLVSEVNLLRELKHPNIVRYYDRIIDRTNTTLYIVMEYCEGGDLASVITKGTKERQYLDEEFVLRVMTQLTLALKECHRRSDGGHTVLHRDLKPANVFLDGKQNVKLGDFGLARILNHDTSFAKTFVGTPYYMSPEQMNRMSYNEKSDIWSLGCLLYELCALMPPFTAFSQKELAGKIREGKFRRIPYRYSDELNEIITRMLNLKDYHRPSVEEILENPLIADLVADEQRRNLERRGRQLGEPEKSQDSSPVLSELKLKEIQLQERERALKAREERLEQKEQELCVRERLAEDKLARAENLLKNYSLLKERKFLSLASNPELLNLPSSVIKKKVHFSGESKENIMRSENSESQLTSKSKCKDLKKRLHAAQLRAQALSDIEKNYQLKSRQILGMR

[14] = biological target: T3, Cytoplasmic tyrosine-protein kinase BMX (Homo sapiens) (UniProt P51813); test: Residual activity of BMX at 0.1 uM by microplate scintillation counting
T3 sequence (whole entry): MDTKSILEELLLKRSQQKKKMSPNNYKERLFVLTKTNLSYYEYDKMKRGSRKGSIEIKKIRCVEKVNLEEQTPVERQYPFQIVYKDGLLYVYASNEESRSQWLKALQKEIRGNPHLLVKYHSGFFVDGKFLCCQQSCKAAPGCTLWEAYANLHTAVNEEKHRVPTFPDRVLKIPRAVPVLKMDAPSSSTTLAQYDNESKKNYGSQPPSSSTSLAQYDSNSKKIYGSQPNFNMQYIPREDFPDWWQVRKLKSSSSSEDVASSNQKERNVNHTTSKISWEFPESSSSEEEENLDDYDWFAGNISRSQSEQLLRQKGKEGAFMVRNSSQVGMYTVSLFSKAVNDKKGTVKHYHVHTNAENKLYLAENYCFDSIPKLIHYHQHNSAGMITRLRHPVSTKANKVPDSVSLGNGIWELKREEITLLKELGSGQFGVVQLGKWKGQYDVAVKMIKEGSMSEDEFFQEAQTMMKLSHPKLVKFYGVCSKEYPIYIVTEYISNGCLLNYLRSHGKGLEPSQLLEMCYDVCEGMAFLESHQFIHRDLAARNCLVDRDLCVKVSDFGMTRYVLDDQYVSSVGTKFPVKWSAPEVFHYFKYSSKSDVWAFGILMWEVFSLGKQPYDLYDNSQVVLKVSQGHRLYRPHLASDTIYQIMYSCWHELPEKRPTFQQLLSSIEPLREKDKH

Sequence of Dual specificity protein kinase CLK1 (Homo sapiens) (P49759 whole entry, looked up): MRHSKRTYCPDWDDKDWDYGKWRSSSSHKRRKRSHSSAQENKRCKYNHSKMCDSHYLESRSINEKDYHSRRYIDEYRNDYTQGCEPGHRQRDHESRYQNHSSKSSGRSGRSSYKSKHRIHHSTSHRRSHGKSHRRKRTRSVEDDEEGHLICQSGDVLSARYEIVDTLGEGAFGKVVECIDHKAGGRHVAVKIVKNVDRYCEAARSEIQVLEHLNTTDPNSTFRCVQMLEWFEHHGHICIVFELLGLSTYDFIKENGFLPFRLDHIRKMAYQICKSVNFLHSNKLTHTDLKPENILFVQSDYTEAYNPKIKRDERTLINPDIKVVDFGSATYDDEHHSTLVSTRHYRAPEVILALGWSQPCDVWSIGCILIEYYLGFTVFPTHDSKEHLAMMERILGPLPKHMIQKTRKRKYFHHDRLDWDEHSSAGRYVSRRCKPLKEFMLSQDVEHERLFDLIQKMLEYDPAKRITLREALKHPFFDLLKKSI

residual activity [1] | residual activity [2] | residual activity [3] | residual activity [4] | residual activity [5] | residual activity [6] | residual activity [7] | residual activity [8] | residual activity [9] | residual activity [10] | residual activity [11] | residual activity [12] | residual activity [13] | residual activity [14] | SMILES
97% | 107% | 78% | 99% | 73% | 33% | 76% | 116% | 98% | 40% | 95% | 98% | 94% | 94% | COc1cc2c(Oc3ccc(-c4nc5ccccc5s4)cc3)ncnc2cc1OCCCN1CCCC1
83% | 141% | 85% | 65% | 79% | 80% | 68% | 130% | 103% | 55% | 100% | 93% | 95% | 117% | COc1cc2c(Oc3ccc(-c4nc5ccccc5s4)cc3)ncnc2cc1OCCCN1CCN(C)CC1
61% | 241% | 96% | 72% | 16% | 58% | 77% | 138% | 104% | 73% | 76% | 80% | 90% | 116% | COc1cc2c(Oc3ccc(-c4nc5ccccc5s4)cc3F)ncnc2cc1OCCCN1CCN(C)CC1
